We go through five molecules from ChEMBL document CHEMBL1127163, “Anilide tertiary carbinols: A new structural class of potent potassium channel openers” (Bioorg Med Chem Lett, 1993).

For series [1], the species on record is Cavia porcellus. Put plainly: Tested for percent increase in efflux rate constant with 54.6 uM of compound using guinea pig detrusor. It is filed as functional.
The species named for series [2] is Cavia porcellus. Put plainly: The compound was tested for […] activity against guinea pig detrusor (bladder) strip mildly depolarized with 15 mM KCl. It is filed as functional.
Series [3] is filed under the species Cavia porcellus. Kind of series: Tested for relaxant activity of compound with 80 mM KCl. In kind it is functional.
For series [4], the species on record is Cavia porcellus. Put plainly: The compound was tested for […] activity against guinea pig vascular tissue (portal vein) strip mildly depolarized with 15 mM KCl. It is filed as functional.
The nature of series [5]: Tested for dissociation constant of compound at PH of 7.4. As to conditions: pH 7.4. It is filed as ADME.

In turn, `C[C@](O)(C(=O)Nc1ccc(S(=O)(=O)c2ccncc2)cc1)C(F)(F)F` showed an Increase in the series listed under Cavia porcellus [1] of 40%. Moreover, the 50% inhibitory concentration (IC50) in the series listed under Cavia porcellus [2] is 1600 nM; in the series filed under Cavia porcellus [3], 260000 nM.
On to `O=C(c1ccc(NC(=O)C(O)(C(F)F)C(F)F)cc1)c1ccccn1`, for which the figures for the concentration for half-maximal inhibition (IC50) in the series filed under Cavia porcellus [2] and in the series filed under Cavia porcellus [4] were 70 nM and 3 nM, respectively. Besides, the pKa in series [5] is 7.5.
`CC1(C)Oc2ccc(C#N)cc2[C@H](N2CCCC2=O)[C@H]1O` (single isomer, unassigned) [(-)-CROMAKALIM]: the 50% inhibitory concentration (IC50) in the series filed under Cavia porcellus [2] was 570 nM; in the series filed under Cavia porcellus [4], 20 nM.
In turn, `C[C@@](O)(C(=O)Nc1ccc(S(=O)(=O)c2ccncc2)cc1)C(F)(F)F` registered an IC50 in the series listed under Cavia porcellus [2] of more than 30000 nM.
On the same count and under the same terms, the same measure for `CC(O)(C(=O)Nc1ccc(S(=O)(=O)c2ccncc2)cc1)C(F)(F)F` (racemic): 3800 nM.

By IC50 is commonly meant the point on the concentration scale where inhibition reaches its midpoint. A lower IC50 goes with higher potency. The pKa is the pH at which an ionisable group is half protonated. Low readings indicate a group that gives up its proton readily, high ones a group that holds its proton tightly.
